Measurements taken from patent publication US7576226B2, “Process of making isomers of norelgestromin and methods using the same” (priority 2003, dated 2009).
≈ marks a conversion by molar mass, not a printed value.

Key:
[1] = Metabolic stability and clearance in human liver microsomes; type: in vitro ADME; conditions: human liver microsomes 1 mg/mL, 5 μM isomer, mean of 3 parallel measurements; for Metabolic stability: F% (metabolic bioavailability)
Description: The metabolic stability of norelgestromin E and Z isomers was examined in human liver microsomes. The 2.5 mL incubation mixture contained 6 mM of Na-pyrophosphate, 5 mM of MgCl2, 5 mM of glucose-6-phosphate, 1 U/mL of glucose 6-phosphate dehydrogenase, human liver microsomes (1 mg/mL) and 5 μM of norelgestromin E or Z isomers. The pH was adjusted with 100 mM of Tris-HCl buffer to pH 7.4. The reaction was started by the addition of 5 mM of NADPH. 0.5 mL samples were taken at 0.5 and 20 minutes with immediate precipitation by 0.5 mL of ice-cold methanol. 1 mL precipitated samples were centrifuged for 30 min at 1200 g, and 10 μL of supernatant was injected into the HPLC.
Analytical measurements were conducted using a Merck-Hitachi HPLC system, with UV monitoring at 244 nm. Unchanged material was measured and intrinsic clearance (Clint) and metabolic bioavailability (F%) was calculated with the following equations: dc/dt/c0=Clint, (mL/min×g protein), where dc/dt is the concentration change in a given period of time and c0 is the initial concentration of the norelgestromin isomer (measured in the 0 min sample). Additionally, Clint1×45=Clint2 (mL/min×g liver) and EH=Clin2/Clint2+HBF, where EH is hepatic extraction and HBF is the hepatic blood flow. Finally the metabolic stability: […]
For statistical analysis, Student's t-test was used (Microsoft Excel). The results summarized in Table 2 are calculated as a mean of 3 parallel measurements.

[2] = system: Caco-2 human adenocarcinoma (epithelial) cell line monolayers; assay: Caco-2 permeability measurement; type: in vitro ADME; conditions: Caco-2 monolayer, luminal to basolateral, 50 μM
Description: Drug absorption studies were performed with Caco-2 human adenocarcinoma (epithelial) cell line monolayers as an in vitro model. Passive flux characteristics of drugs across the Caco-2 monolayer have shown a correlation with human oral bioavailability.
Caco-2 cells obtained from American Type Culture collection, Rockville, Md., (ATCC) were grown at 37° C. in an atmosphere of 5% CO2 in Dulbecco's modified eagle medium supplemented with 10% heat inactivated fetal bovine serum (GIBCOBRL 11360-039) and antibiotics: penicillin 100 U/mL, and streptomycin 100 μg/mL (GIBCOBRL 15140-031).
Confluent cell monolayers grown in an incubator (at 37° C. with 5% CO2/[…] and 95% humidity) were subcultured every seven days by treatment with 0.25% trypsin containing 1 mM EDTA.
19-23-day-old confluent monolayers of fully differentiated Caco-2 cells were used for transport studies after 6-10 passages.
EHS Cell Attachment Matrix (Promega G5971), Minimum Essential medium Eagle (MEM) with Earle salts, L-Glutamine (GIBCOBRL 41500-091) and Transwell Polycarbonate Membrane (Costar 3401) were used.
Coated Transwells with EHS Cell Attachment Matrix (Promega G5971) and 200000-500000 Caco-2 cells are applied/inserted. […]
The concentrations of the isomers were determined by liquid chromatography with ultraviolet (HPLC/UV) analysis. […]
Dim.: 125−3 mm.+guard. […] Peak quantitation: height; calculation method: EXT-STD.

[3] = Equilibrium solubility in distilled water (UV spectrophotometry); type: physicochemical; conditions: thermodynamic from solid, room temperature
Description: The determination of equilibrium solubility of E and Z isomers of norelgestromin was carried out in distilled water. 20 mg of norelgestromin was added to 20 mL of distilled water at room temperature. The suspension was stirred continuously and samples were withdrawn from time to time. The samples were filtered, and the norelgestromin content of the filtrates was determined by a spectrophotometrical method measuring UV absorption. The spectrophotometrical measurements were performed on a VARIAN Cary 3E spectrophotometer at room temperature.

[4] = Lipophilicity by isocratic reversed-phase HPLC (k′, CHI); type: physicochemical; conditions: for Polarity (k′, HPLC): Nova-Pak C18, acetonitrile mobile phase, 25° C.; for Polarity (CHI index, HPLC): acetonitrile concentration of the mobile phase where log k′=0
Description: Lipophilicity was determined by an HPLC method. The HPLC measurements were performed on a Thermo Separation Product (SpectraSystem P4000 and SpectraFOCUS Forward Optical Scanning Detector) HPLC instrument. Data were analyzed by ChromQuest (ver. 2.51) software.
For reversed-phase HPLC measurements, a Nova-Pak C18 column was used (dimension of 4 μm×4.6 mm×250 mm: Waters, Ireland). Detection was performed at λ=280 nm and 25° C. The flow rate of the mobile phase was 1.0 mL/min. HPLC gradient grade acetonitrile was used as organic component (Merck KGaA., Darmstadt, Germany). The retention data of the two isomers were obtained by isocratical analysis of the mobile phases containing different amounts of acetonitrile. The void time (t0) was determined by injection of methanol.
Samples were dissolved in a 1:1 mixture of acetonitrile:water in a concentration of 1 mg/4 mL. The log k′ values were calculated from the mean retention time measured after two subsequent injections of 10 μL volume (log k′=log((tR−t0)/t0)). The log k′ values were represented as a function of the concentration of acetonitrile.
The chromatographical hydrophobicity index (CHI) is a measure of the lipophilic character of the compounds in the reversed phase HPLC measurements. By definition, the CHI parameter is that concentration of acetonitrile of the mobile phase where log k′=0.

[5] = CHI of six steroids (structure-absorption experiment); type: physicochemical; conditions: chromatographical hydrophobicity index, isocratical conditions
Description: The beneficial effect of the increasing lipophilicity for the transdermal absorption was proven by carrying out a structure-absorption experiment with six different steroids. In the following publications: Int. J. Pharm. 217:1 (2001), and J. Chromatography 49:631 (1993), it has been shown that the chromatographical hydrophobicity index (CHI) measured under isocratical conditions is a reliable descriptor of lipophilicity. The CHI values of the investigated steroids were determined according to these experiments (Table 3) and correlated with the measured stratum corneum/water distribution coefficients.

SMILES: C#C[C@]1(O)CC[C@H]2[C@@H]3CCC4=C/C(=N/O)CC[C@@H]4[C@H]3CC[C@@]21CC (single isomer, unassigned; isomer d) [E-isomer, d-(17α)-13-ethyl-17-hydroxy-18,19-dinorpregn-4-ene-20-yn-3-one-(3E)-oxime]
- Metabolic stability [1]: 86.7 ± 1.67
- Metabolic clearance (mL/min g liver) [1]: 0.1815 ± 0.026 mL/min g liver
- Concentration on the abluminal side (μM in the 30th min) [2]: 1.27 ± 0.56 µM
- solubility [3]: 3.8 µg/mL (≈ 11.6 µM)
- Polarity (k′, HPLC) [4]: 1.02
- Polarity (CHI index, HPLC) [4]: 74

SMILES: C#C[C@]1(O)CC[C@H]2[C@@H]3CCC4=C/C(=N\O)CC[C@@H]4[C@H]3CC[C@@]21CC (single isomer, unassigned; isomer d) [Z-isomer, d-(17α)-13-ethyl-17-hydroxy-18,19-dinorpregn-4-ene-20-yn-3-one-(3Z)-oxime]
- Metabolic stability [1]: 91.9 ± 1.52
- Metabolic clearance (mL/min g liver) [1]: 0.1042 ± 0.021 mL/min g liver
- Concentration on the abluminal side (μM in the 30th min) [2]: 1.98 ± 0.78 µM
- solubility [3]: 12.1 µg/mL (≈ 37 µM)
- Polarity (k′, HPLC) [4]: 1.46
- Polarity (CHI index, HPLC) [4]: 70

SMILES: C[C@]12CCC(=O)C=C1CC[C@@H]1[C@@H]2CC[C@@]2(C)[C@H]1CC[C@]2(O)C(=O)CO [Cortexolone]
- CHI [5]: 54.87

SMILES: C[C@]12CC[C@@H]3c4ccc(O)cc4CC[C@H]3[C@@H]1C[C@@H](O)[C@@H]2O [Estriol]
- CHI [5]: 40.45

SMILES: C[C@]12CCC(=O)C=C1CC[C@@H]1[C@@H]2[C@@H](O)C[C@@]2(C)[C@H]1CC[C@]2(O)C(=O)CO [Hydrocortisone]
- CHI [5]: 33.8

SMILES: CC(=O)[C@H]1CC[C@H]2[C@@H]3CC=C4C[C@@H](O)CC[C@]4(C)[C@H]3CC[C@]12C [Pregnenolone]
- CHI [5]: 95.36

SMILES: C[C@]12CC[C@H]3[C@@H](CCC4=CC(=O)CC[C@@]43C)[C@@H]1CC[C@@H]2O [Testosterone]
- CHI [5]: 75.87
